Assay results from paper PMC5607274, “An iterative compound screening contest method for identifying target protein inhibitors using the tyrosine-protein kinase Yes” (Scientific Reports, 2017).

These compounds were tested against T1, human recombinant Yes [a.a. 2–543 (end)] (Homo sapiens, UniProt P07947) (assay: ADP-Glo kinase assay, inhibition rates of Yes phosphorylation activity (first and second screening)). Conditions: first screening; mean of n = 4 wells; 10 μmol L−1 compound.
T1 construct: human recombinant Yes [a.a; 2–543 (end)]; purchased BPS Bioscience 40488
T1 sequence (P07947 2-543): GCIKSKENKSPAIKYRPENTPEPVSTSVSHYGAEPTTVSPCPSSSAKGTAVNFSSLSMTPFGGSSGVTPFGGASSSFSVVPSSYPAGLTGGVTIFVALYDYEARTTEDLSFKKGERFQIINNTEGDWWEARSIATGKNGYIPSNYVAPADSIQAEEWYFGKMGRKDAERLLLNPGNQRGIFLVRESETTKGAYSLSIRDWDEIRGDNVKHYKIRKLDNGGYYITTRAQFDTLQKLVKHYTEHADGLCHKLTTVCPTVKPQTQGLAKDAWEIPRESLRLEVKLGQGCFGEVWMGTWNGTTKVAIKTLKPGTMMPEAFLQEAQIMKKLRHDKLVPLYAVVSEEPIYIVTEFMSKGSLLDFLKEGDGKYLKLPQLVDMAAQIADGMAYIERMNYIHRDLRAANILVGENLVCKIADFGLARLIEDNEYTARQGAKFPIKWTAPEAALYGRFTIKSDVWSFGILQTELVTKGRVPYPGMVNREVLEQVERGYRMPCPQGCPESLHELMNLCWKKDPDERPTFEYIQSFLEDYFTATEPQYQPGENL
Type: biochemical
Method in brief: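 Hits from a first pass were rescreened after re-dissolution from fresh powder. The first pass reported the mean inhibition rate of quadruplicate wells per compound. Activity was that of recombinant human Yes [a.a. 2–543] kinase, read out with the ADP-Glo ADP-detection method.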
In the case of `O=C(NCCc1c[nH]c2cc(F)ccc12)c1cnc(-c2ccccc2)nc1` [Compound Z960870544], the “First screening IR (inhibition rate)” value was 43%.
`Cc1c(C(=O)Nc2ccc3c(ccn3CCN3CCOCC3)c2)nnn1-c1ccc(F)cc1` [Compound Z961847812] was tested, and the “First screening IR (inhibition rate)” value was -11%.
For `COc1ccc(C)cc1N1CC(C(=O)Nc2ccc3c(ccn3CCN3CCOCC3)c2)CC1=O` (stereo not shown) [Compound Z961849222], the “First screening IR (inhibition rate)” value was 23%.
`CCOC(=O)Cn1ccc2cc(NC(=O)c3sc(-c4ccccc4)nc3C)ccc21` [Compound Z968524204] was tested, and the “First screening IR (inhibition rate)” value was 2%.
For `O=S1(=O)CCC(S(=O)(=O)NC2CCCCCC2)CC1` [Compound Z968739862], the “First screening IR (inhibition rate)” value was 50%.
In the case of `Cc1ccccc1CN(C)S(=O)(=O)C1CCS(=O)(=O)CC1` [Compound Z968740596], the “First screening IR (inhibition rate)” value was -2%.
For `Cc1ccnn1-c1ccc(C(=O)N2CCC(N3CCCC3C(N)=O)CC2)cc1` (stereo not shown) [Compound Z968814168], the “First screening IR (inhibition rate)” value was -8%.
In the case of `C(=N/Nc1nc2ccccc2nc1-c1ccccc1)/c1ccc2nccnc2c1` [Compound Z969651240], the “First screening IR (inhibition rate)” value was 11%.
With `O=C(/C=C/c1cccnc1)c1ccc(N2CCOC2=O)cc1` [Compound Z970272914] the “First screening IR (inhibition rate)” value was 16%.
For `CC(C)C(C)NC(=O)C1CCN(Cc2ccc(C#N)cc2)CC1` (stereo not shown) [Compound Z975048678], the “First screening IR (inhibition rate)” value was 5%.
`Cc1cc(CN2CCSCC2)ccc1NC(=O)c1ccnc(N(C)C)c1` [Compound Z978895402] was tested, and the “First screening IR (inhibition rate)” value was 0%.
For `CC(C)NC(=O)Nc1ccc(C(=O)N(CCC#N)Cc2ccco2)cc1` [Compound Z979061162], the “First screening IR (inhibition rate)” value was 7%.
With `Cn1c(CSc2n[nH]c(-c3ccccc3F)n2)nc2ccccc21` [Compound Z982182198] the “First screening IR (inhibition rate)” value was 4%.
`CS(=O)(=O)Cc1ccc(CNc2ccnc3c(F)ccc(F)c23)cc1` [Compound Z983418922] was tested, and the “First screening IR (inhibition rate)” value was -17%.
For `O=C(Nc1cccc(OCCn2cccn2)c1)NC1CCSCC1` [Compound Z987964770], the “First screening IR (inhibition rate)” value was 8%.
In the case of `Cc1cccc(NCC2CCN(c3ncnc4c3cnn4C)C2)n1` (stereo not shown) [Compound Z990436502], the “First screening IR (inhibition rate)” value was 6%.
With `Cc1ccnc(NCC2CCN(Cc3cccc(C(N)=O)c3)C2)c1` (stereo not shown) [Compound Z990550860] the “First screening IR (inhibition rate)” value was -3%.
`Cc1cccc(NCC2CCN(Cc3cccc(C(N)=O)c3)C2)n1` (stereo not shown) [Compound Z990551490] was tested, and the “First screening IR (inhibition rate)” value was 2%.
`N#CCCn1ncc2c(NCc3ccc4c(c3)OCCO4)ncnc21` [Compound Z990838348] was tested, and the “First screening IR (inhibition rate)” value was 2%.
With `OCCn1ncc2c(NCCc3nnc4ccccn34)ncnc21` [Compound Z990848218] the “First screening IR (inhibition rate)” value was -6%.
`N#CCCn1ncc2c(N3CCN(Cc4ccco4)CC3)ncnc21` [Compound Z990852254] was tested, and the “First screening IR (inhibition rate)” value was 3%.
With `CC1CN(c2ncnc3c2cnn3CCC#N)CCO1` (stereo not shown) [Compound Z990855820] the “First screening IR (inhibition rate)” value was 4%.
In the case of `N#CCCn1ncc2c(NC3CCCC(C(F)(F)F)C3)ncnc21` (stereo not shown) [Compound Z990858522], the “First screening IR (inhibition rate)” value was -12%.
For `CC(C)C(=O)N1CCC(Nc2ncnc3c2cnn3CCC#N)CC1` [Compound Z990868196], the “First screening IR (inhibition rate)” value was -8%.
With `CC(CNc1ncnc2c1cnn2CCO)Cn1cccn1` (stereo not shown) [Compound Z990883644] the “First screening IR (inhibition rate)” value was 11%.
For `COc1c(CNCc2ccc(C(=O)N(C)C)cc2)c(C)nn1C` [Compound Z991036884], the “First screening IR (inhibition rate)” value was 27%.
With `O=C(NCc1nc(-c2ccccc2)n[nH]1)c1ccc(-c2ccccc2)cc1` [Compound Z991809296] the “First screening IR (inhibition rate)” value was -14%.
For `O=C(Cc1ccc(OC(F)F)cc1)N1CCC(c2nc(-c3ccccc3)n[nH]2)CC1` [Compound Z991836758], the “First screening IR (inhibition rate)” value was -3%.
In the case of `Cc1cccc(C(C)C)c1NC(=O)CN1CCCCC1Cc1ccccc1` (stereo not shown) [Compound Z991917352], the “First screening IR (inhibition rate)” value was -4%.
In the case of `CCN1CCN(Cc2ccc(NC(=O)C3CCCN3C(=O)c3ccc4ccccc4c3O)cc2)CC1` (stereo not shown) [Compound Z992207680], the “First screening IR (inhibition rate)” value was 51%.

Same assay, conditions: second screening, dissolved from fresh powder; n = 4; 10 μmol L−1 compound
For `COc1c(CNCc2ccc(C(=O)N(C)C)cc2)c(C)nn1C` [Compound Z991036884], the “Second screening IR (inhibition rate)” value was -29%.
